Experimental data taken from publication PMC6960228, “Ethoxysanguinarine, a Novel Direct Activator of AMP-Activated Protein Kinase, Induces Autophagy and Exhibits Therapeutic Potential in Breast Cancer Cells” (Frontiers in Pharmacology, 2020).

Key:
[1] = test system: MCF-7, MDA-MB-231, or MDA-MB-436 cells; test: MTT assay, Eth and/or 3-MA; assay type: cell-based, human; conditions: Eth 3.5, 3.0 or 3.0 µM and 3-MA 1 mM, 24 h
Protocol: (§1) Cells were seeded into 96-well plate and pre-cultured for 24 h, then treated with Eth for 24. Cell cytotoxicity was determined by MTT assay. The absorbance was measured at 490 nm by automated microplated reader (BioTek Instruments, Inc., Winooski, VT, USA), and the cell death rate was calculated as followed: inhibition rate (%) = (average A490 of the control group − average A490 of the experimental group)/(average A490 of the control group − average A490 of the blank group) × 100%. Cell viability was estimated by trypan blue dye exclusion.
(§2) Figure 2 Eth induces autophagy in BC cells. (A): MCF-7, MDA-MB-231, or MDA-MB-436 cells were treated with increasing concentrations of Eth for 24 h. Western blot was performed using antibodies indicated. GAPDH was used as the loading control. […] (C): MCF-7, MDA-MB-231, or MDA-MB-436 cells transfected with pQCXIP-GFP-LC3 plasmid were treated with increasing concentrations of Eth for 24 h, and assessed by immunoﬂuorescence analyses. […] (D): MDA-MB-231 or MDA-MB-436 cells transfected with pQCXIP-GFP-LC3 plasmid were treated with Eth (2.0 µM) and/or 3-MA (1 mM) for 24 h, and assessed by immunoﬂuorescence analyses. […] (F): MCF-7, MDA-MB-231, or MDA-MB-436 cells were treated with Eth (3.5 µM, 3.0 µM, or 3.0 µM) and/or 3-MA (1 mM) for 24 h and analyzed by MTT assay. […]

[2] = test system: LC3 redistribution to autophagosomes in BC cells; test: GFP-LC3 autophagy assay (confocal microscopy); assay type: cell-based, human; conditions: 24 h
Excerpt: The cells were transfected with pQCXIP-GFP-LC3 plasmid using the Lipofectamine 3000 (Invitrogen; Thermo Fisher Scientific, Inc.) according to the recommended protocol by the manufacturer and then fixed in 4% paraformaldehyde. The percentage of cells with fluorescent dots representing GFP-LC3 translocation was counted. For visualization of cell nucleus, DAPI was used. Sections were observed using an Olympus laser scanning confocal microscope with imaging software (Olympus Fluoview FV-1000, Tokyo, Japan).
Figure 2 Eth induces autophagy in BC cells. (A): MCF-7, MDA-MB-231, or MDA-MB-436 cells were treated with increasing concentrations of Eth for 24 h. Western blot was performed using antibodies indicated. GAPDH was used as the loading control. (B): MCF-7 (MDA-MB-231 or MDA-MB-436) cells were treated with 2.4 µM (2.0 µM or 2.0 µM) Eth for the indicated times, and cell lysates were subjected to western blot assay. (C): MCF-7, MDA-MB-231, or MDA-MB-436 cells transfected with pQCXIP-GFP-LC3 plasmid were treated with increasing concentrations of Eth for 24 h, and assessed by immunoﬂuorescence analyses. Scale bar = 20 µm. (D): MDA-MB-231 or MDA-MB-436 cells transfected with pQCXIP-GFP-LC3 plasmid were treated with Eth (2.0 µM) and/or 3-MA (1 mM) for 24 h, and assessed by immunoﬂuorescence analyses. Scale bar = 20 µm. […] (F): MCF-7, MDA-MB-231, or MDA-MB-436 cells were treated with Eth (3.5 µM, 3.0 µM, or 3.0 µM) and/or 3-MA (1 mM) for 24 h and analyzed by MTT assay. (G): MCF-7, MDA-MB-231, or MDA-MB-436 cells were treated with Eth (2.4 µM, 2.0 µM, or 2.0 µM) and/or 3-MA (1 mM) for 24 h, and western blot was performed using antibodies indicated. *P < 0.05.
(§3) Figure 3 Eth induces autophagy through the AMPK/mTORC1 signaling. […] (D): MDA-MB-231 or MDA-MB-436 cells transfected with pQCXIP-GFP-LC3 plasmid were treated with Eth (2.0 µM) and/or CC (25 µM) for 24 h, and assessed by immunoﬂuorescence analyses. […] (G): MDA-MB-231 or MDA-MB-436 cells transfected with pQCXIP-GFP-LC3 plasmid were treated with Eth (1.0 µM or 1.6 µM) and/or Met (10 mM) for 24 h, and assessed by immunoﬂuorescence analyses. […]

[3] = test system: LC3-II and Beclin-1 in MCF-7, MDA-MB-231, and MDA-MB-436 cells; test: Western blot of autophagy markers; assay type: cell-based, human; conditions: Eth 2.4, 2.0 or 2.0 µM and 3-MA 1 mM, 24 h
Protocol: Cells were lysed in radioimmunoprecipitation assay buffer containing 50 mM Tris, pH 8.0, 150 mM NaCl, 0.1% SDS, 0.5% sodium deoxycholate, 1% NP-40, 1 mM DTT, 1 mM NaF, 1 mM sodium orthovanadate, 1 mM phenylmethylsulfonyl fluoride (PMSF; Sigma-Aldrich; Merck KGaA), and 1% protease inhibitors cocktail (EMD Millipore, Billerica, MA, USA). Protein concentration was determined using the Bradford method. Equal amounts of sample (25 µg) were separated by SDS-PAGE (8–12% gels). Electrophoresed proteins were then transferred onto polyvinylidene fluoride membranes (EMD Millipore, Billerica, MA, USA). The membranes were blocked with 5% skimmed milk in Tris-buffered saline at room temperature for 1 h. Following blocking, membranes were incubated overnight at 4°C with primary antibodies and then rinsed with Tris-buffered saline with Tween 20. […]
as §2, with “cells.” for “cells. (A): MCF-7, MDA-MB-231, or MDA-MB-436 cells were treated with increasing concentrations of Eth for 24 h. Western blot was performed using antibodies indicated. GAPDH was used as the loading control.”

[4] = test system: AMPKα; test: Streptavidin agarose affinity assay; assay type: binding, human; conditions: cells treated with 4 μM Bio-Eth for 12 h
Protocol: Cell pellets were lysed and the supernatant collection was incubated with indicated antibodies overnight at 4°C, after which protein A/G Plus beads (Santa Cruz Biotechnology) were added and incubated at 4°C for 4 h. The beads were washed 4 times in NETN buffer (1% NP-40, 2 mM EDTA, 40 mM Tris-HCl, 137 mM NaCl, pH 7.4), resuspended in SDS-PAGE loading buffer and boiled for 5 min. For streptavidin agarose affinity assay, cells upon Bio-Eth were lysed; the lysates were incubated with streptavidin agarose, washed and boiled in SDS-PAGE loading buffer. […] Western blot assays were performed.
Figure 4 Eth is a direct activator of AMPK. (A): MCF-7, MDA-MB-231, or MDA-MB-436 cells were treated with increasing concentrations of Eth for 24 h, and AMPK activity assay was performed. (B): The binding mode of Eth docked into AMPK. (C): The binding mode of Eth docked into AMPK. α subunit is green, β subunit is cyan, γ subunit is magenta and Eth is gold. (D): Details of the binding site of Eth in the ADaM site of AMPK. The main residues involved in drug interactions are shown as labeled green sticks. α subunit is green, β subunit is cyan. The pSER-108 was shown in stick and colored by gold. (E) The interaction pattern of Eth with the residues. […] (H): Viability of MCF-7, MDA-MB-231 or MDA-MB-436 cells exposed to Biotin-Eth as determined by MTT assay. […]

[5] = test system: MDA-MB-231; test: MTT cytotoxicity assay; assay type: cell-based; conditions: Homo sapiens, MDA-MB-231, 24 h
Excerpt: (§4) Human BC cell lines MCF-7, MDA-MB-231, DMA-MB-436, SK-BR3, MDA-MB-468, MDA-MB-453, and MDA-MB-435S and non-tumorigenic MCF-10A human mammary epithelial cells were obtained from American Type Culture Collection (ATCC; Manassas, VA, USA). MCF-7, SK-BR3, MDA-MB-231, and MDA-MB-436 cells were maintained in Dulbecco’s modified Eagle’s medium (DMEM; high glucose; Gibco; Thermo Fisher Scientific, Inc., Waltham, MA, USA) supplemented with 10% fetal bovine serum (FBS; HyClone; Logan, UT, USA) and antibiotics and incubated in a humidified atmosphere with 5% CO2 at 37°C. MDA-MB-468, MDA-MB-453, and MDA-MB-435S cells were maintained in Leibovitz’s L-15 (Gibco) supplemented with 10% FBS and antibiotics and incubated in a humidified atmosphere without CO2 at 37°C. MCF-10A cells were maintained in DMEM/F12 medium containing 5% horse serum (HS), insulin ([…]), epidermal growth factor (EGF, 20 ng/mL), choleratoxin ([…]), hydrocortisone ([…]), penicillin (50 U/mL), and streptomycin (50 U/mL), and incubated in a humidified atmosphere with CO2 at 37°C.
as §1

[6] = test system: MDA-MB-436; test: MTT cytotoxicity assay; assay type: cell-based; conditions: Homo sapiens, MDA-MB-436, 24 h
Excerpt: as §4, §1

[7] = test system: MCF-7; test: MTT cytotoxicity assay; assay type: cell-based; conditions: Homo sapiens, MCF7, MCF-7, 24 h
Excerpt: as §4, §1

[8] = test system: AMPK/mTORC1 signaling in MCF-7, MDA-MB-231, and MDA-MB-436 cells; test: Western blot of AMPK/mTORC1 signaling; assay type: cell-based, human; conditions: 24 h
Protocol: Cells were lysed in radioimmunoprecipitation assay buffer containing 50 mM Tris, pH 8.0, 150 mM NaCl, 0.1% SDS, 0.5% sodium deoxycholate, 1% NP-40, 1 mM DTT, 1 mM NaF, 1 mM sodium orthovanadate, 1 mM phenylmethylsulfonyl fluoride (PMSF; Sigma-Aldrich; Merck KGaA), and 1% protease inhibitors cocktail (EMD Millipore, Billerica, MA, USA). Protein concentration was determined using the Bradford method. Equal amounts of sample (25 µg) were separated by SDS-PAGE (8–12% gels). Electrophoresed proteins were then transferred onto polyvinylidene fluoride membranes (EMD Millipore, Billerica, MA, USA). The membranes were blocked with 5% skimmed milk in Tris-buffered saline at room temperature for 1 h. Following blocking, membranes were incubated overnight at 4°C with primary antibodies and then rinsed with Tris-buffered saline with Tween 20. The following primary antibodies were used: anti-Glut3 (1:500; catalog no. sc-74399) (Santa Cruz Biotechnology, Inc., Dallas, TX, USA); anti-LC3 (1:1000; catalog no. 12741), anti-AMPKα (1:1000; catalog no. 2532), anti-phospho-AMPKα (Thr172) (1:1000; catalog no. 2535), anti-phospho-AMPKβ1 (Ser108) (1:1000; catalog no. 4181), anti-AMPKγ1 (1:1000; catalog no. 4187), anti-mTOR (1:1000; catalog no. 2983), anti-phospho-mTOR (Ser2448) (1:1000; catalog no. 5536), anti-P70S6K (1:1000; catalog no. 9202), anti-phospho-P70S6K (Thr389) (1:1000; catalog no. 92775), anti-4E-BP1 (1:1000; catalog no. 9234), anti-phospho-4E-BP1 (Thr37/46) (1:1000; catalog no. 2855), anti-ACC (1:1000; catalog no. 3676), anti-phospho-ACC ([…]) (1:1000; catalog no. 11818), anti-Glut1 (1:1000; catalog no. 12939), anti-Glut4 (1:1000; catalog no. 2213) (All Cell Signaling Technology, Inc., Danvers, MA, USA), and anti-GAPDH (1:5000; catalog no. M20006; Abmart, Shanghai, China). Membranes were then washed, and incubated with horseradish peroxidase-conjugated secondary antibody (1:10000; E030120-01 and E030110-01; EarthOx, LLC, San Francisco, CA, USA) for 1.5 h at room temperature. The protein bands were visualized using SuperSignal® West Pico PLUS Chemiluminescent substrate (catalog no. 34579; Pierce; Thermo Fisher Scientific, Inc., Rockford, IL, USA) ([Zhang et al., 2018]).
as §3, with “signaling. (A): MCF-7, MDA-MB-231, or MDA-MB-436 cells were treated with increasing concentrations of Eth for 24 h. Western blot was performed using antibodies indicated.” for “signaling.”

Cn1cnc(=N)c2[nH]cnc21 [3-MA]
effect of 3-MA on cell proliferation inhibited by Eth [1]: significantly reversed the cell proliferation inhibited by Eth | effect of 3-MA on induction of autophagy by Eth ([2]; Eth 2.0 µM and 3-MA 1 mM): antagonize the induction of autophagy by Eth | effect of 3-MA on upregulation of LC-3II and Beclin1 by Eth [3]: antagonized the upregulation of autophagy-related proteins LC-3II and Beclin1

CN1c2c(ccc3cc4c(cc23)OCO4)-c2ccc3c(c2C1OC(=O)CCCCC1SCC2NC(=O)NC21)OCO3 (stereo not shown) [Bio-Eth]
pull-down of AMPKα by streptavidin agarose [4]: AMPKα was pulled down by streptavidin agarose | IC50 [5]: 3.74 µM | IC50 [6]: 3.71 µM | IC50 [7]: 3.78 µM

c1cc(-c2cnn3cc(-c4ccc(OCCN5CCCCC5)cc4)cnc23)ccn1 [CC, reference compound]
effect of CC on LC-3II expression and autophagic vacuoles in Eth-treated cells ([2]; Eth 2.0 µM and CC 25 µM): reversed the increased LC-3II expression and number of autophagic vacuoles | effect of CC on Eth-induced reduction in mTORC1 phosphorylation ([8]; Eth 2.4, 2.0 or 2.0 µM and CC 25 µM): reversed the reduction in phosphorylation

CN(C)C(=N)N=C(N)N [metformin, reference compound]
effect of metformin co-treatment on Eth action on mTORC1 phosphorylation and autophagy ([8]; Eth 1.6, 1.0 or 1.6 µM and Met 10 mM): enhanced the effect of Eth on the phosphorylation of mTORC1 and autophagy
